Results as given in patent US20240092835A1, “NOVEL PEPTIDES CAPABLE OF ALTERING NK CELL ACTIVITY” (Massachusetts Institute of Technology, priority 2022, published 2024).
Entries after “also recorded” stand apart in the source; their conditions may differ. Where no end group is shown, it is not given here.

Experiments:
CD94/NKG2C = CD94/NKG2C (Homo sapiens, UniProt P26717+Q13241); assay: Steady-state surface plasmon resonance of peptide-HLA-E complex with CD94/NKG2C; format: binding; conditions: for Binding of peptide-HLA-E complexes to CD94/NKG2C normalized to a theoretical Rmax: steady-state SPR
Chain of CD94/NKG2C (P26717 94-231 limits assumed): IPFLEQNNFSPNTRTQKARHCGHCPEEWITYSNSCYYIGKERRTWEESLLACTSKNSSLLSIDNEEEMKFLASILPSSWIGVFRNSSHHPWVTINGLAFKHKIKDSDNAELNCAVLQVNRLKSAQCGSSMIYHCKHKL
Chain of CD94/NKG2C (Q13241 32-179 limits assumed): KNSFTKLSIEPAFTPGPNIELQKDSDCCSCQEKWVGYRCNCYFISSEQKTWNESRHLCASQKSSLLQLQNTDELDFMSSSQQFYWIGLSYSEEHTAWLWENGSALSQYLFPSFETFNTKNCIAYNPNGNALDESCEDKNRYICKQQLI

NKG2A−/NKG2C+ NK cells = assay: NKG2A-/NKG2C+ NK cell activation with peptide and RMA-S cells expressing HLA-E; format: cell-based; conditions: RMA-S cells expressing HLA-E, NKG2A−/NKG2C+ NK cells
Outline: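 RMA-S cells with low HLA-E expression were loaded with peptides and tested against NKG2A−/NKG2C+ NK cells, with two reference peptide sequences as controls. Activation read as percent cells positive for CD107a, IFNG, TNF and CCL3.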

CD94/NKG2A = CD94/NKG2A (Homo sapiens, UniProt P26715+Q13241); assay: Steady-state surface plasmon resonance of peptide-HLA-E complex with CD94/NKG2A; format: binding; conditions: for Binding of peptide-HLA-E complexes to CD94/NKG2A normalized to a theoretical Rmax: steady-state SPR
Chain of CD94/NKG2A (P26715 94-233 limits assumed): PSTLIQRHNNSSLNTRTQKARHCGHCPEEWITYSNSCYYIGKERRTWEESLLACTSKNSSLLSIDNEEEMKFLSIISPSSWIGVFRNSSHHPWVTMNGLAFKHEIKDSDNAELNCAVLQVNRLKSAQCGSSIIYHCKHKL
Chain of CD94/NKG2A (Q13241 32-179 limits assumed): as the sequence (Q13241 32-179 limits assumed) above

HLA-E = target: T1, HLA-E (Homo sapiens, UniProt P13747); assay: HLA-E surface stabilization assay with RMA-S/HLA-E cells; format: cell-based; conditions: 30 μM peptide, 16 hours; for HLA-E surface expression stability (GeoMFI): anti-HLA-E antibody
T1 construct: expressed in transfected cells; host or cells: RMA-S/HLA-E cells (antigen processing-defective lymphoma cell line)
T1 sequence (P13747 22-358): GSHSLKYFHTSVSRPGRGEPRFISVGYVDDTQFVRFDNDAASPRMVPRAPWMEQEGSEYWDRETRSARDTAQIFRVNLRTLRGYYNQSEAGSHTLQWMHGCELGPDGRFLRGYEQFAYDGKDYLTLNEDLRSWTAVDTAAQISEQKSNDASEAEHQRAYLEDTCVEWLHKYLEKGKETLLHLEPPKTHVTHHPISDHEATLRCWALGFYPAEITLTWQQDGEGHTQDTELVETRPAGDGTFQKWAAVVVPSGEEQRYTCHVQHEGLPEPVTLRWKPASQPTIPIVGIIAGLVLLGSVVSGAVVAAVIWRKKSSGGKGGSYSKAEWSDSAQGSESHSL
T1 sequence (P61769 21-119 partner): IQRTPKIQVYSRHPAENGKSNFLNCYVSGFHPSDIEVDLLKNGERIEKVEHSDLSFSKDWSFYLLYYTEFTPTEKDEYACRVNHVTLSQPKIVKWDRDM
Procedure: HLA-E surface expression was assessed by measuring geometric mean fluorescence intensity (GeoMFI) in RMA-S cells following immunofluorescence staining with an anti-HLA-E antibody (Table 14). Increased GeoMFI was indicative of increased HLA-E surface expression stability following novel peptide exposures (FIG. 3).

NKG2A+/NKG2C− NK cells = assay: NK cell activation markers in NKG2A+/NKG2C- NK cells incubated with peptide and K562 expressing HLA-E (inhibition); format: cell-based, human; conditions: for effect on NKG2A+/NKG2C− NK cell inhibition (in words): K562 expressing HLA-E, CD107a, IFNG, TNF, CCL3; for percentage of CCL3+ NK cells / percentage of CD107a+ NK cells / percentage of IFNG+ NK cells / percentage of TNF+ NK cells: NKG2A+/NKG2C- NK cells, K562/HLA-E
Outline: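 Read-out: % NK cells positive for surface activation markers; a rise indicates activation, a fall indicates inhibition. Targets were K562 cells expressing HLA-E, loaded with human- or HCMV-proteome-derived peptides.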

## TGPWRSLWI [human3, TGPWRSLWI]
CD94/NKG2C; CD94/NKG2C concentration 0 μM
  binding of peptide-HLA-E complex to CD94/NKG2C normalized to a fitted Rmax: 0.006
CD94/NKG2C; CD94/NKG2C concentration 0.1 μM
  binding of peptide-HLA-E complex to CD94/NKG2C normalized to a fitted Rmax: 0.008
CD94/NKG2C; CD94/NKG2C concentration 0.2 μM
  binding of peptide-HLA-E complex to CD94/NKG2C normalized to a fitted Rmax: 0.007
CD94/NKG2C; CD94/NKG2C concentration 0.4 μM
  binding of peptide-HLA-E complex to CD94/NKG2C normalized to a fitted Rmax: 0.011
CD94/NKG2C; CD94/NKG2C concentration 0.8 μM
  binding of peptide-HLA-E complex to CD94/NKG2C normalized to a fitted Rmax: 0.016
CD94/NKG2C; CD94/NKG2C concentration 1.6 μM
  binding of peptide-HLA-E complex to CD94/NKG2C normalized to a fitted Rmax: 0.026
CD94/NKG2C; CD94/NKG2C concentration 3.2 μM
  binding of peptide-HLA-E complex to CD94/NKG2C normalized to a fitted Rmax: 0.044
CD94/NKG2C; CD94/NKG2C concentration 6.4 μM
  binding of peptide-HLA-E complex to CD94/NKG2C normalized to a fitted Rmax: 0.078
CD94/NKG2C; CD94/NKG2C concentration 12.8 μM
  binding of peptide-HLA-E complex to CD94/NKG2C normalized to a fitted Rmax: 0.130
CD94/NKG2C; CD94/NKG2C concentration 25.6 μM
  binding of peptide-HLA-E complex to CD94/NKG2C normalized to a fitted Rmax: 0.219
CD94/NKG2C; CD94/NKG2C concentration 51.2 μM
  binding of peptide-HLA-E complex to CD94/NKG2C normalized to a fitted Rmax: 0.353
CD94/NKG2C; CD94/NKG2C concentration 102.4 μM
  binding of peptide-HLA-E complex to CD94/NKG2C normalized to a fitted Rmax: 0.537
CD94/NKG2C; CD94/NKG2C analyte concentration 0 μM
  Binding of peptide-HLA-E complexes to CD94/NKG2C normalized to a theoretical Rmax: 0.002
CD94/NKG2C; CD94/NKG2C analyte concentration 0.1 μM
  Binding of peptide-HLA-E complexes to CD94/NKG2C normalized to a theoretical Rmax: 0.003
CD94/NKG2C; CD94/NKG2C analyte concentration 0.2 μM
  Binding of peptide-HLA-E complexes to CD94/NKG2C normalized to a theoretical Rmax: 0.003
CD94/NKG2C; CD94/NKG2C analyte concentration 0.4 μM
  Binding of peptide-HLA-E complexes to CD94/NKG2C normalized to a theoretical Rmax: 0.004
CD94/NKG2C; CD94/NKG2C analyte concentration 0.8 μM
  Binding of peptide-HLA-E complexes to CD94/NKG2C normalized to a theoretical Rmax: 0.006
CD94/NKG2C; CD94/NKG2C analyte concentration 1.6 μM
  Binding of peptide-HLA-E complexes to CD94/NKG2C normalized to a theoretical Rmax: 0.010
CD94/NKG2C; CD94/NKG2C analyte concentration 3.2 μM
  Binding of peptide-HLA-E complexes to CD94/NKG2C normalized to a theoretical Rmax: 0.017
CD94/NKG2C; CD94/NKG2C analyte concentration 6.4 μM
  Binding of peptide-HLA-E complexes to CD94/NKG2C normalized to a theoretical Rmax: 0.030
CD94/NKG2C; CD94/NKG2C analyte concentration 12.8 μM
  Binding of peptide-HLA-E complexes to CD94/NKG2C normalized to a theoretical Rmax: 0.050
CD94/NKG2C; CD94/NKG2C analyte concentration 25.6 μM
  Binding of peptide-HLA-E complexes to CD94/NKG2C normalized to a theoretical Rmax: 0.084
CD94/NKG2C; CD94/NKG2C analyte concentration 51.2 μM
  Binding of peptide-HLA-E complexes to CD94/NKG2C normalized to a theoretical Rmax: 0.135
CD94/NKG2C; CD94/NKG2C analyte concentration 102.4 μM
  Binding of peptide-HLA-E complexes to CD94/NKG2C normalized to a theoretical Rmax: 0.205
NKG2A−/NKG2C+ NK cells
  increase in CCL3+ NK cells (in words): slight increases
  increase in CD107a+ NK cells (in words): slight increases
  increase in IFNG+ NK cells (in words): no increase
  increase in TNF+ NK cells (in words): no increase
CD94/NKG2A; CD94/NKG2A concentration 0 μM
  binding of peptide-HLA-E complex to CD94/NKG2A normalized to a fitted Rmax: 0.013
CD94/NKG2A; CD94/NKG2A concentration 0.1 μM
  binding of peptide-HLA-E complex to CD94/NKG2A normalized to a fitted Rmax: 0.015
CD94/NKG2A; CD94/NKG2A concentration 0.2 μM
  binding of peptide-HLA-E complex to CD94/NKG2A normalized to a fitted Rmax: 0.019
CD94/NKG2A; CD94/NKG2A concentration 0.4 μM
  binding of peptide-HLA-E complex to CD94/NKG2A normalized to a fitted Rmax: 0.030
CD94/NKG2A; CD94/NKG2A concentration 0.8 μM
  binding of peptide-HLA-E complex to CD94/NKG2A normalized to a fitted Rmax: 0.051
CD94/NKG2A; CD94/NKG2A concentration 1.6 μM
  binding of peptide-HLA-E complex to CD94/NKG2A normalized to a fitted Rmax: 0.086
CD94/NKG2A; CD94/NKG2A concentration 3.2 μM
  binding of peptide-HLA-E complex to CD94/NKG2A normalized to a fitted Rmax: 0.145
CD94/NKG2A; CD94/NKG2A concentration 6.4 μM
  binding of peptide-HLA-E complex to CD94/NKG2A normalized to a fitted Rmax: 0.231
CD94/NKG2A; CD94/NKG2A concentration 12.8 μM
  binding of peptide-HLA-E complex to CD94/NKG2A normalized to a fitted Rmax: 0.336
CD94/NKG2A; CD94/NKG2A concentration 25.6 μM
  binding of peptide-HLA-E complex to CD94/NKG2A normalized to a fitted Rmax: 0.472
CD94/NKG2A; CD94/NKG2A concentration 51.2 μM
  binding of peptide-HLA-E complex to CD94/NKG2A normalized to a fitted Rmax: 0.639
CD94/NKG2A; CD94/NKG2A concentration 102.4 μM
  binding of peptide-HLA-E complex to CD94/NKG2A normalized to a fitted Rmax: 0.827
CD94/NKG2A; CD94/NKG2A analyte concentration 0.000 μM
  Binding of peptide-HLA-E complexes to CD94/NKG2A normalized to a theoretical Rmax: 0.004
CD94/NKG2A; CD94/NKG2A analyte concentration 0.100 μM
  Binding of peptide-HLA-E complexes to CD94/NKG2A normalized to a theoretical Rmax: 0.005
CD94/NKG2A; CD94/NKG2A analyte concentration 0.200 μM
  Binding of peptide-HLA-E complexes to CD94/NKG2A normalized to a theoretical Rmax: 0.006
CD94/NKG2A; CD94/NKG2A analyte concentration 0.400 μM
  Binding of peptide-HLA-E complexes to CD94/NKG2A normalized to a theoretical Rmax: 0.009
CD94/NKG2A; CD94/NKG2A analyte concentration 0.800 μM
  Binding of peptide-HLA-E complexes to CD94/NKG2A normalized to a theoretical Rmax: 0.015
CD94/NKG2A; CD94/NKG2A analyte concentration 1.600 μM
  Binding of peptide-HLA-E complexes to CD94/NKG2A normalized to a theoretical Rmax: 0.026
CD94/NKG2A; CD94/NKG2A analyte concentration 3.200 μM
  Binding of peptide-HLA-E complexes to CD94/NKG2A normalized to a theoretical Rmax: 0.044
CD94/NKG2A; CD94/NKG2A analyte concentration 6.400 μM
  Binding of peptide-HLA-E complexes to CD94/NKG2A normalized to a theoretical Rmax: 0.070
CD94/NKG2A; CD94/NKG2A analyte concentration 12.800 μM
  Binding of peptide-HLA-E complexes to CD94/NKG2A normalized to a theoretical Rmax: 0.102
CD94/NKG2A; CD94/NKG2A analyte concentration 25.600 μM
  Binding of peptide-HLA-E complexes to CD94/NKG2A normalized to a theoretical Rmax: 0.143
CD94/NKG2A; CD94/NKG2A analyte concentration 51.200 μM
  Binding of peptide-HLA-E complexes to CD94/NKG2A normalized to a theoretical Rmax: 0.194
CD94/NKG2A; CD94/NKG2A analyte concentration 102.400 μM
  Binding of peptide-HLA-E complexes to CD94/NKG2A normalized to a theoretical Rmax: 0.250
HLA-E; Trial 1
  HLA-E surface expression stability (GeoMFI): 510 GeoMFI
HLA-E; Trial 2
  HLA-E surface expression stability (GeoMFI): 428 GeoMFI
HLA-E; Trial 3
  HLA-E surface expression stability (GeoMFI): 421 GeoMFI
HLA-E; Trial 4
  HLA-E surface expression stability (GeoMFI): 596 GeoMFI
HLA-E; listed as GTF3C5293-301
  HLA-E surface expression stabilization strength (in words): closest to the experimental negative control (DMSO); also recorded: lowest
NKG2A+/NKG2C− NK cells; listed as SEQ ID NO. 2
  effect on NKG2A+/NKG2C− NK cell inhibition (in words): no or minimal effect
NKG2A+/NKG2C− NK cells; listed as h3
  effect on NKG2A+/NKG2C− NK cell inhibition (in words): no effect
NKG2A+/NKG2C− NK cells; Trial 1
  percentage of CCL3+ NK cells: 54.6%
  percentage of CD107a+ NK cells: 34.8%
  percentage of IFNG+ NK cells: 15.5%
  percentage of TNF+ NK cells: 6.18%
NKG2A+/NKG2C− NK cells; Trial 2
  percentage of CCL3+ NK cells: 73.9%
  percentage of CD107a+ NK cells: 47.2%
  percentage of IFNG+ NK cells: 26.8%
  percentage of TNF+ NK cells: 12.4%
NKG2A+/NKG2C− NK cells; Trial 3
  percentage of CCL3+ NK cells: 55.1%
  percentage of CD107a+ NK cells: 44.9%
  percentage of IFNG+ NK cells: 32.1%
  percentage of TNF+ NK cells: 19.7%
NKG2A+/NKG2C− NK cells; Trial 4
  percentage of CCL3+ NK cells: 46.5%
  percentage of CD107a+ NK cells: 37.7%
  percentage of IFNG+ NK cells: 20.1%
  percentage of TNF+ NK cells: 12.5%
NKG2A+/NKG2C− NK cells; Trial 5
  percentage of CCL3+ NK cells: 49.6%
  percentage of CD107a+ NK cells: 35.9%
  percentage of IFNG+ NK cells: 19.2%
  percentage of TNF+ NK cells: 9.62%
NKG2A+/NKG2C− NK cells; Trial 6
  percentage of CCL3+ NK cells: 33.1%
  percentage of CD107a+ NK cells: 25.7%
  percentage of IFNG+ NK cells: 9.52%
  percentage of TNF+ NK cells: 5.43%
